Data on 3 molecules can be found in publication PMC13210772, “Dual FLT3/MAPK14 Proteolysis-Targeting Chimera (PROTAC) Induces Potent Acute Myeloid Leukemia Cell Death” (Pharmaceuticals, 2026).

Data set [1] relates to FLT3-ITD. As to the kind of experiment: KINOMEscan binding assay. An outline of the steps:
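Competition binding: DNA-tagged FLT3-ITD (phage-expressed in E. coli BL21 host or produced in HEK-293) incubated with immobilized ligand beads and compound (0.9% DMSO final). Kinase retained on beads eluted and quantified by qPCR.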

Data set [2] is described as follows: Non-enzymatic stability under cellular assay conditions (HPLC). It is filed as physicochemical. The following applies: compound remaining, assay medium DMEM, 37 °C. The procedure: An important aspect in the development of PROTACs is testing chemical stability. On the one hand, we tested all PROTACs produced for their stability under cellular assay conditions. For this purpose, 10 µM solutions of the PROTACs and reference inhibitor were incubated for 72 h at 37 °C with the assay medium DMEM. The remaining amount of the compounds was determined by HPLC after 6, 12, 24, 48 and 72 h. The results of the stability studies are shown in Table S2 (Supplementary Information).
The developed compounds were diluted in the assay media consisting of a mixture of DMEM (50%), DMSO (10%) and acetonitrile (40%) at pH 7.4 and incubated at 37 °C for 72 h. The quantity of the compounds was measured after 6, 12, 24, 48, and 72 h by HPLC using an XTerra RP18 column ([…], 3.9 mm × 100 mm) from the manufacturer Waters (Milford, MA, USA) and two LC-10AD pumps, an SPD-M10AVP PDA detector, and an SIL-HT autosampler, all from the manufacturer Shimadzu (Kyoto, Japan).

The test system of data set [3] is MOLM-13 cells. As to the kind of experiment: Apoptosis by flow cytometry (annexin-V/propidium iodine). The following applies: 72 h. It is filed as cell-based, human. The method, then: To further assess the biological relevance of these findings, we treated MV4-11 cells with the new PROTACs, included MA49 as control, and analyzed them for early (annexin-V positive) and late apoptosis (annexin-V and propidium iodine positive) by flow cytometry. Cells in late apoptosis are more severely damaged than cells in early apoptosis. […] After 72 h, all degraders evoked equal levels of apoptosis (Figure 4c). We additionally tested these degraders in MOLM-13 cells which carry FLT3-ITD and FLT3 from a patient with AML after initial myelodysplastic syndrome.
(§1) Figure 4 Biological and biochemical characterization of the FLT3 PROTACs. (a) MV4-11 cells were incubated for 24 h with 50 nM of the indicated compounds. Immunoblotting was performed for the indicated proteins and their phosphorylation (p-) or cleavage (cl.; indicated by arrows); β-actin was used to ensure equal sample loading. (b) MV4-11 cells were treated with the indicated agents and analyzed for early and late apoptosis by flow cytometry. (c) Same as in (b) but treatment for 72 h. (d) MOLM-13 cells were treated with the indicated agents and analyzed for early and late apoptosis by flow cytometry. […] Immunoblots show the expression of the indicated proteins and their phosphorylation (p-); β-actin was used to ensure equal sample loading. All immunoblots show data from at least two independent repetitions and flow cytometry analyses were conducted thrice independently; * […], ** p < 0.01, *** p < 0.001, **** p < 0.0001.

Data set [4] can be described thus: in vitro. The following applies: human, HEK293 cells.
Data set [5] can be described thus: in vitro. Particulars: CD-1, mouse, liver microsomes, pH 7.4.
Data set [6] can be described thus: Metabolic stability in liver microsomes. The following applies: for degraded after 2 h: mouse liver microsomes. (In general: Liver microsomes are a subcellular fraction often used to study metabolism.)
In data set [7] the test system is HEK293 cells. Nature of the data set: Cytotoxicity in HEK293 cells (Alamar Blue). Particulars: 50 µM. In general terms: Alamar Blue is a resazurin reagent that responds to reducing activity.
The target in data set [8] is MAPK14 (Homo sapiens, UniProt Q16539). As to the kind of experiment: KINOMEscan binding assay. The arrangement: purchased Eurofins DiscoverX Corporation; host or cells: E. coli BL21-derived (T7 phage) or HEK-293. The procedure:
Kinase-tagged T7 phage strains were prepared in an E. coli host derived from the BL21 strain. E. coli were grown to log-phase and infected with T7 phage and incubated with shaking at 32 °C until lysis. The lysates were centrifuged and filtered to remove cell debris. The remaining kinases were produced in HEK-293 cells and subsequently tagged with DNA for qPCR detection. […] The liganded beads were blocked with excess biotin and washed with blocking buffer (SeaBlock (Pierce), 1% BSA, 0.05% Tween 20, 1 mM DTT) to remove unbound ligand and to reduce non-specific binding. […] The compounds were then diluted directly into the assays such that the final concentration of DMSO was 0.9%. All reactions performed in polypropylene 384-well plate. Each was a final volume of 0.02 mL. […] The kinase concentration in the eluates was measured by qPCR.

Data set [9] relates to FLT3-ITD. As to the kind of experiment: FLT3-ITD degradation, immunoblot in MOLM-13 cells. The following applies: 50 nM, 24 h. It is filed as cell-based, human.
From the text: To verify that MA190 and MA191 trigger the depletion of FLT3-ITD and a breakdown of its downstream signaling in both MV4-11 and MOLM-13 cells, we used immunoblotting. Furthermore, we evaluated if the elimination of FLT3-ITD is inherent to the PROTAC activities of MA190 and MA191, or due to their kinase inhibitor moieties using MA68. […] The loss of FLT3-ITD was linked to a reduction of STAT5 and AKT, their phosphorylation, and the auto-phosphorylation of FLT3-ITD in both AML cell systems (Figure 4f,g).
as §1
Background: Immunoblotting shows a protein as a band on a membrane.

[10] abbreviates: mouse (CD-1) liver microsomes, 25 μM.
The mark [11] stands for this setting: single runs A and B (Table S3), listed as MA49_B.
Where [12] appears, read: single runs A and B (Table S3), listed as MA190_B.

Chain of MAPK14 (Q16539 whole entry): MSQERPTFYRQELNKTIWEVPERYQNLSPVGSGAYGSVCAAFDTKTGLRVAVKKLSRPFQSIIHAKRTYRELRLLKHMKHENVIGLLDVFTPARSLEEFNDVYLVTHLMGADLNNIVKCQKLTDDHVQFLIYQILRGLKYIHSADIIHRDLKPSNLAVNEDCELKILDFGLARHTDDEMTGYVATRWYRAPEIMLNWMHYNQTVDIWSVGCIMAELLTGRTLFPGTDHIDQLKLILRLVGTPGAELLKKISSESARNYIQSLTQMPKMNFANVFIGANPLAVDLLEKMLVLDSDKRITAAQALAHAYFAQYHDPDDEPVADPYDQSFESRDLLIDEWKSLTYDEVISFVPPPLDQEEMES

The term viability denotes the share of living cells, or the viability signal relative to a control. Higher therefore signals better survival. A word on the share remaining: it is what is left of the initial amount, in per cent. Higher therefore signals less turnover. As for `Cc1ncsc1-c1ccc([C@H](C)NC(=O)[C@@H]2C[C@@H](O)CN2C(=O)[C@@H](NC(=O)CCOCCOCCOCCNC(=O)c2cc(Oc3ccc(NC(=O)Nc4cc(C(C)(C)C)on4)cc3)ccn2)C(C)(C)C)cc1` [MA49, reference compound], in data set [1], the “% FLT3-ITD Binding at 1 µM” value came to 91 ± 2%. In [2], the “0 h - %” value is listed as 100%, the 6 h- % is on record as 101.1%, the 12 h- % is on record as 101.4% and the 24 h- % worked out at 103.5%. In data set [2], this molecule came in with a 48 h- % of 104.2% and a 72 h- % of 104.9%. Also, in [3], the “induction of late apoptosis” value is recorded as “most potent inducers of late apoptosis”. The molecule also came in with a viability at 24 h, 50 µM in [4] of 2.9 ± 0.3%. In data set [5], this molecule registered a fraction remaining at 0 h, 25 µM of 100%; a fraction remaining at 10 min, 25 µM of 66%; an amount remaining at 20 min, 25 µM of 53%; a fraction remaining at 0.5 h, 25 µM of 37%. Further, in data set [5], the amount remaining at 1 h, 25 µM stood at 29% and the fraction remaining at 2 h, 25 µM is 15%. Besides, in data set [6] (setting [10]), the “20 min—Compound Remaining %” value is 52.9 ± 2.1% and the “30 min—Compound Remaining %” value turned out to be 37.2 ± 0.6%. Besides, in data set [6] (mouse (CD-1) liver microsomes, 25 μM, 60 min), the “60 min—Compound Remaining %” value worked out at 28.8 ± 2.9%. The “degraded after 2 h” value in data set [6] was 85.0%. The “10 min - compound remaining %” value in [6] (single runs A and B (Table S3), 10 min, listed as MA49_B) is reported as 71%. Also, in data set [6] (setting [11]), the “20 min - compound remaining %” value was determined as 57%, the “30 min - compound remaining %” value is 38% and the “120 min - compound remaining %” value stood at 10%. For the same molecule, the “60 min - compound remaining %” value in data set [6] (single runs A and B (Table S3), 60 min, listed as MA49_B) is reported as 35%. Moreover, in data set [7], the “cytotoxic effects” value was “showed cytotoxic effects”. Also, the “% MAPK- 14 Binding at 1 µM” value in [8] was determined as 81 ± 0%.

With `CNC(=O)c1cc(Oc2ccc(NC(=O)Nc3cc(C(C)(C)C)on3)cc2)ccn1` [MA68, reference compound], in [2], the “0 h - %” value came out at 100%, the 6 h- % came to 101.0%, the 12 h- % amounted to 102.4% and the 24 h- % was 102.1%. In [2], this molecule gave a 48 h- % of 105.7% and a 72 h- % of 105.2%. For the same molecule, the “FLT3-ITD degradation” value in data set [9] is reported as “but not their underlying kinase inhibitor MA68, eliminate FLT3-ITD”. In data set [4], this molecule came in with a viability at 24 h, 50 µM of 11.5 ± 2.2%. Moreover, the “cytotoxic effects” value in data set [7] is given as “showed cytotoxic effects”.

As for `Cc1ncsc1-c1ccc([C@H](C)NC(=O)[C@@H]2C[C@@H](O)CN2C(=O)[C@@H](NC(=O)[C@H]2CC[C@H](C(=O)N3CCC(CCNC(=O)c4cc(Oc5ccc(NC(=O)Nc6cc(C(C)(C)C)on6)cc5)ccn4)CC3)CC2)C(C)(C)C)cc1` [MA190, 4-(4-(3-(5-(tert-Butyl)isoxazol-3-yl)ureido)phenoxy)-N-(2-(1-(trans-4-(((S)-1-((2S,4R)-4-hydroxy-2-(((S)-1-(4-(4-methylthiazol-5-yl)phenyl)ethyl)carbamoyl)pyrrolidin-1-yl)-3,3-dimethyl-1-oxobutan-2-yl)carbamoyl)cyclohexanecarbonyl)piperidin-4-yl)ethyl)picolinamide], the “% FLT3-ITD Binding at 1 µM” value in [1] stood at 71 ± 1%. Besides, in data set [2], the “0 h - %” value was 100%, the 6 h- % came to 102.6%, the 12 h- % is on record as 103.2% and the 24 h- % is reported as 104.4%. In addition, in data set [2], the 48 h- % came out at 105.4% and the 72 h- % was 107.4%. Further, the “induction of late apoptosis” value in data set [3] is recorded as “most potent inducers of late apoptosis”. Further, the “FLT3-ITD degradation” value in data set [9] is reported as “eliminate FLT3-ITD”. The viability at 24 h, 50 µM in data set [4] was 99.1 ± 3.1%. In [5], this molecule came in with a share remaining at 0 h, 25 µM of 100%; a fraction remaining at 10 min, 25 µM of 92%; a fraction remaining at 20 min, 25 µM of 90%; an amount remaining at 0.5 h, 25 µM of 95%. In data set [5], this molecule returned an amount remaining at 1 h, 25 µM of 96% and a share remaining at 2 h, 25 µM of 91%. The “10 min—Compound Remaining %” value in data set [6] (mouse (CD-1) liver microsomes, 25 μM, 10 min) was determined as 91.5 ± 0.4%. Further, in [6] (setting [10]), the “20 min—Compound Remaining %” value is listed as 88.5 ± 1.2% and the “30 min—Compound Remaining %” value came out at 93.9 ± 0.6%. In addition, the “degraded after 2 h” value in [6] is 8.0%. In data set [6] (setting [12]), the “20 min - compound remaining %” value stood at 87%, the “30 min - compound remaining %” value was 93% and the “120 min - compound remaining %” value worked out at 93%. Also, in data set [7], the “cytotoxic effects” value is listed as “no cytotoxic effects”. The “% MAPK- 14 Binding at 1 µM” value in data set [8] is given as 90 ± 2%.
